Here are results for three compounds from US20260001875A1, “AMINOPYRIMIDINYL DERIVATIVES FOR THE TREATMENT OF PARKINSON'S DISEASE” (UNIVERSITY OF DUNDEE, priority 2022, published 2026).

Structures are written as SMILES. Converted amounts (≈) assume the structure as drawn. “Also recorded” adds a separate entry of the source. Like-named read-outs stand apart in the source and are kept apart here.

For one series, the system named is Rab10 pThr73. The experiment in a line: Rab10 Thr73 dephosphorylation (immunoblot) in LRRK2^G2019S MEFs. The class given is cell-based. Particulars: Mus musculus, read-out: pRab10 inhibited in LRRK2^G2019S MEFs.
Another series concerns Caco-2 mono-cell layer. The experiment in a line: Caco-2 permeability. The class given is in vitro ADME.
The next series is described as follows: Caco-2 permeability. It counts as in vitro ADME. Particulars: human, Caco-2.
The nature of series [1]: Pharmacokinetic study in mice (plasma, brain, CSF). It counts as in vivo, mouse. The following applies: for AUC(0-inf) / AUC(0-t) / half-life: male, C57BL/6, mouse; for half-life: read-out: metabolic half-life (converted). The protocol: PK profiling was outsourced and undertaken by Shanghai ChemPartner Co., Ltd. All animal experiments performed were conducted in compliance with the Institutional Animal Care and Use Committee (IACUC) and the Office of Laboratory Animal Welfare (OLAW) guidelines. Six- to eight-week-old C57BL/6 male mice purchased from Jihui Laboratory Animal Co. LTD were used in the study. […] The animals were restrained manually at the designated time points (0.083, 0.25, 0.5, 1, 2, 4, and 8 h); approximately, 110 μL of blood sample was collected via facial vein into K2EDTA tubes. Three mice per time point were used, resulting in a total of 21 mice for each administration route. The blood sample was put on ice and centrifuged at 2000 g for 5 min to obtain the plasma sample within 15 min. The plasma, brain, CSF samples were stored at approximately −70° C. until analysis. A 30 μL aliquot of plasma was added with 200 μL of internal standard (Glipozode, 40 ng/mL) in MeCN with 5% citri. The mixture was then vortexed for 1 min and then centrifuged for 10 min at 5800 rpm. The supernatant (100 μL) was transferred to a new plate. The solvent (1 μL) was injected to LC-MS/MS. LC-MS/MS instrument used: SCIEX LC-MS/MS-49 (Triple Quad 6500+). Data was analyzed by WinNonLin and Microsoft Excel.

A short description of series [2]: Stability in mouse hepatocytes. The class given is in vitro ADME. The following applies: read-out: T1/2 in mouse hepatocytes.
A short description of a further series: Solubility. It counts as physicochemical.
Where [3] appears, read: CSF, intravenous 5 mg/Kg single dose.
Where [4] appears, read: brain, gavage (oral) 30 mg/Kg single dose.
The mark [5] stands for this setting: brain, intraperitoneal 30 mg/Kg single dose.
[6] abbreviates: brain, intravenous 5 mg/Kg single dose.
Where [7] appears, read: ip, brain, intraperitoneal 30 mg/Kg single dose.
[8] abbreviates: gavage (oral) 30 mg/Kg single dose.
Setting [9] is: intraperitoneal 30 mg/Kg single dose.

As for `CNc1nc(Nc2ccc(C(=O)N3CCN(CCOCCOCCSC(C)(C)[C@H](NC(=O)C4(F)CC4)C(=O)N4C[C@H](O)C[C@H]4C(=O)NCc4ccc(-c5scnc5C)cc4)CC3)cc2OC)ncc1Cl` [SD75, (2S,4R)-1-((R)-3-((2-(2-(2-(4-(4-((5-chloro-4-(methylamino)pyrimidin-2-yl)amino)-3-methoxybenzoyl)piperazin-1-yl)ethoxy)ethoxy)ethyl)thio)-2-(1-fluorocyclopropane-1-carboxamido)-3-methylbutanoyl)-4-hydroxy-N-(4-(4-methylthiazol-5-yl)benzyl)pyrrolidine-2-carboxamide], the inhibition at 0.033 µM in the series with Rab10 pThr73 (33 nM/4 h treatment) is 0 to 60%; in the series on Rab10 pThr73 (33 nM/24 h treatment), 0 to 70%.
With `CNc1nc(Nc2ccc(C(=O)N3CCN(C[C@H]4CC[C@H](CSC(C)(C)[C@H](NC(=O)C5(F)CC5)C(=O)N5C[C@H](O)CC5C(=O)NCc5ccc(-c6scnc6C)cc5)CC4)CC3)cc2OC)ncc1Cl` (stereo partly drawn) [XL01126, (2S,4R)-1-((R)-3-((((1R,4R)-4-((4-(4-((5-chloro-4-(methylamino)pyrimidin-2-yl)amino)-3-methoxybenzoyl)piperazin-1-yl)methyl)cyclohexyl)methyl)thio)-2-(1-fluorocyclopropane-1-carboxamido)-3-methylbutanoyl)-4-hydroxy-N-(4-(4-methylthiazol-5-yl)benzyl)pyrrolidine-2-carboxamide], in the series with Caco-2 mono-cell layer, the “penetration of Caco-2 mono-cell layer (in words)” value is listed as “can penetrant Caco-2 mono-cell layer; also recorded: can penetrate Caco-2 mono-cell layer”. This compound also had a Papp A→B in “Caco-2 permeability” (A − B) of less than 0.74 ×10⁻⁶ cm/s. Also, the Papp B→A in the series “Caco-2 permeability” (B − A) is less than 1.43 ×10⁻⁶ cm/s. In addition, in series [1] (setting [3]), the “maximum concentration in cerebrospinal fluid (CSF)” value is reported as 27.4 ng/mL, the “time of maximum concentration in CSF” value amounted to 0.083 h, the AUC(0-inf) was found to be 240 ng·h/mL and the AUC(0-t) worked out at 107 ng·h/mL. The half-life in series [1] (setting [3]) was 8.59 h. In series [1] (setting [4]), the “maximum concentration in brain tissue” value came out at 27 ng/mL, the “time of maximum concentration in brain tissue” value (“time … in brain tissue” below) turned out to be 2 h, the AUC(0-inf) was 402 ng·h/mL and the AUC(0-t) was determined as 142 ng·h/mL. Besides, the half-life in series [1] (setting [4]) was 10.7 h. Further, in series [1] (setting [5]), the “maximum concentration in brain tissue” value stood at 218 ng/mL and the “time … in brain tissue” value was 0.5 h. Besides, in series [1] (setting [6]), the “maximum concentration in brain tissue” value was 155 ng/mL, the “time … in brain tissue” value was 0.083 h, the AUC(0-inf) stood at 349 ng·h/mL and the AUC(0-t) turned out to be 258 ng·h/mL. Further, the half-life in series [1] (setting [6]) was 3.67 h. The “reaches CSF (in words)” value in series [1] (intraperitoneal 30 mg/Kg and orally 30 mg/Kg) is recorded as “also reaches CSF”. Besides, the “blood brain barrier penetration (in words)” value in series [1] (intravenous 5 mg/Kg, intraperitoneal 30 mg/Kg, oral 30 mg/Kg) is reported as “capable of penetrating blood brain barrier; also recorded: can penetrant blood brain barrier”. Further, in series [1] (setting [7]), the AUC(0-inf) amounted to 884 ng·h/mL, the AUC(0-t) is 752 ng·h/mL and the half-life is 2.79 h. In series [1] (setting [8]), the maximum plasma concentration amounted to 3620 ng/mL and the “time of maximum plasma concentration” value is 2 h. Besides, in series [1] (setting [9]), the maximum plasma concentration is listed as 7700 ng/mL and the “time of maximum plasma concentration” value came to 0.25 h. For the same compound, the half-life in series [2] stood at 5.24 h. Besides, the solubility in “Solubility” (FeSSIF (fed state simulated intestinal fluid), fessif, Fed State Simulated Intestinal Fluid pH 5.8, read-out: Solubility in FeSSIF (pH 5.8)) is 26.1 µM (≈ 26.6 µg/mL). In addition, in the series “Solubility” (aqueous buffer, PBS pH 7.4, read-out: Solubility in PBS (pH 7.4)), the solubility is 0.55 µM (≈ 0.561 µg/mL).
Regarding `CNc1nc(Nc2ccc(C(=O)N3CCN(C[C@H]4CC[C@@H](CSC(C)(C)[C@H](NC(=O)C5(F)CC5)C(=O)N5C[C@H](O)CC5C(=O)NCc5ccc(-c6scnc6C)cc5)CC4)CC3)cc2OC)ncc1Cl` (stereo partly drawn) [XL01134], the results for the inhibition at 0.033 µM in the series with Rab10 pThr73 (33 nM/4 h treatment) and with Rab10 pThr73 (33 nM/24 h treatment) were 0 to 70% and 0 to 90%, respectively.
